Test results taken from ChEMBL document CHEMBL1201862, “PubChem BioAssay data set” (2004).
Activity calls are given as the source filed them.

Experiments:
[1] = BJeHLT cell viability loss – BJeHLT cells, dry powder, counter-screen for Ras selective lethality project, dose response (AID 493052); type: functional, cell-based; details: Homo sapiens
[2] = HRAS-V12 fibroblast viability reduction – cell-based, Alamar Blue, dry powder, Ras selective lethality project, primary screen (AID 493045); type: functional; details: BJeLR
[3] = DRD BJ cell killing, Ras synthetic lethality – DRD BJ fibroblasts, HRASV12, dry powder, dose response (AID 493049); type: functional, cell-based
[4] = BJeH cell viability loss – BJeH cells, dry powder, counter-screen for Ras selective lethality project, dose response (AID 493054); type: functional, cell-based
Coagulation factor XII = biological target: T1, Coagulation factor XII (Homo sapiens, UniProt P00748); type: functional;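 further: activated factor XIIa alpha cleaving a fluorogenic AMC peptide substrate; inhibitor potency from loss of enzyme activity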
T1 sequence (P00748 whole entry): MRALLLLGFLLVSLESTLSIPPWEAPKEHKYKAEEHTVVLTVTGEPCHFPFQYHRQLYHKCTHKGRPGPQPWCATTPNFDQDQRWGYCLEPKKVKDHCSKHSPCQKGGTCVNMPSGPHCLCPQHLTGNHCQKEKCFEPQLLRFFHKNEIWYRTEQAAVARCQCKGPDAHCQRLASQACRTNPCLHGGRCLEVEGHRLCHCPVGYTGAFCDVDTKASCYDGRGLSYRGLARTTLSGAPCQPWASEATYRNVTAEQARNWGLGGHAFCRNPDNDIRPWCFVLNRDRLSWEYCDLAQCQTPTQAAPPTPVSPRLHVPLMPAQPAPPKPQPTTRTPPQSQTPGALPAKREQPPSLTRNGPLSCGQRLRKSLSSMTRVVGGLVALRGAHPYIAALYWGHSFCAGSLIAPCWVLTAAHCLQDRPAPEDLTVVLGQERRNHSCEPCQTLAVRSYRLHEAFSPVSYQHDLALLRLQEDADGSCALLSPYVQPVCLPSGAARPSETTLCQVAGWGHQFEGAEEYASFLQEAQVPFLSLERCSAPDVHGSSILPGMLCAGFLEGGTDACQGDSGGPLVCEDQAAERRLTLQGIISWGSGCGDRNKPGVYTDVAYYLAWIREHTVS

[5] = biological target: T2, Mannose-6-phosphate isomerase (Homo sapiens, UniProt P34949); assay: phosphomannose isomerase inhibition – biochemical, fluorescence intensity, confirmation (AID 1535)
T2 sequence (P34949 whole entry): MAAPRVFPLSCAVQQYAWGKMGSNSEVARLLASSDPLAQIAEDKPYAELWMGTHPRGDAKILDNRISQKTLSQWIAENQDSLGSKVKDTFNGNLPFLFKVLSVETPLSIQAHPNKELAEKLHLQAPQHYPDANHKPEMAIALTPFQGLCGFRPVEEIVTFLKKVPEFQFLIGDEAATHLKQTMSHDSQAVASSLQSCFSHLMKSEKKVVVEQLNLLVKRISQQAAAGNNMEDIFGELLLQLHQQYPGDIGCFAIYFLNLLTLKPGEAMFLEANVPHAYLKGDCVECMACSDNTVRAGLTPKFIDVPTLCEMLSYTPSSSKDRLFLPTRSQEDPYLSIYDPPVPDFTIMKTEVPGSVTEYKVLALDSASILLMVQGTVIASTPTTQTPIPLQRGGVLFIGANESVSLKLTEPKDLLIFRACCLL

Phosphomannomutase 2 = Phosphomannomutase 2 (Homo sapiens, UniProt O15305); assay: Counter screen SAR assay for PMM2 inhibitors via a fluorescence intensity assay. [Related pubchem assays (depositor defined):AID1545, AID1574]
Phosphomannomutase 2, sequence (O15305 whole entry): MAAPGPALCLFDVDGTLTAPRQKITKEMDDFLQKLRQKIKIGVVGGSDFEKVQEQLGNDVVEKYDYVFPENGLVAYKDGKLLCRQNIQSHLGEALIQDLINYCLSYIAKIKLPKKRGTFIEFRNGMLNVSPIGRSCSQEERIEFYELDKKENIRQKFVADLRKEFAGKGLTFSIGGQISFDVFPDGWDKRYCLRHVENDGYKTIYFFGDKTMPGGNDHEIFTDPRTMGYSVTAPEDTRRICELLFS

Cytochrome P450 1A2 = biological target: T3, Cytochrome P450 1A2 (Homo sapiens, UniProt P05177);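 further: PubChem cytochrome P450 panel assay, CYP1A2 panel member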
T3 sequence (P05177 whole entry): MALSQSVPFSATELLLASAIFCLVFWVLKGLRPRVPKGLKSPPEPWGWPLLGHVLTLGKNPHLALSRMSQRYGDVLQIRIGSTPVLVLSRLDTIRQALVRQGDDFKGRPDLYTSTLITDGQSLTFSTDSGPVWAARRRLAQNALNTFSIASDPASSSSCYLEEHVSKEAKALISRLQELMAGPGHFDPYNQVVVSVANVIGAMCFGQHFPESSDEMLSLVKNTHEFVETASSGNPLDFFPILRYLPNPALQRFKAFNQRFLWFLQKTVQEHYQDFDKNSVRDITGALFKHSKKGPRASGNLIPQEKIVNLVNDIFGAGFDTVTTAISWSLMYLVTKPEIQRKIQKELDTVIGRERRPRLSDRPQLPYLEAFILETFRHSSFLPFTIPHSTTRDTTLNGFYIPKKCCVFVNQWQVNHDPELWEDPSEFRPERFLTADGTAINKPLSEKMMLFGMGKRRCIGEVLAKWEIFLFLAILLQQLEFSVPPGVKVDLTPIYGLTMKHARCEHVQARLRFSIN

Cytochrome P450 2C19 = Cytochrome P450 2C19 (Homo sapiens, UniProt P33261); assay: Cytochrome panel assay with activity outcomes. Panel member name: p450-cyp2c19 Compounds with AC50 equal or less than 10 uM are considered active; type: functional
Cytochrome P450 2C19, sequence (P33261 whole entry): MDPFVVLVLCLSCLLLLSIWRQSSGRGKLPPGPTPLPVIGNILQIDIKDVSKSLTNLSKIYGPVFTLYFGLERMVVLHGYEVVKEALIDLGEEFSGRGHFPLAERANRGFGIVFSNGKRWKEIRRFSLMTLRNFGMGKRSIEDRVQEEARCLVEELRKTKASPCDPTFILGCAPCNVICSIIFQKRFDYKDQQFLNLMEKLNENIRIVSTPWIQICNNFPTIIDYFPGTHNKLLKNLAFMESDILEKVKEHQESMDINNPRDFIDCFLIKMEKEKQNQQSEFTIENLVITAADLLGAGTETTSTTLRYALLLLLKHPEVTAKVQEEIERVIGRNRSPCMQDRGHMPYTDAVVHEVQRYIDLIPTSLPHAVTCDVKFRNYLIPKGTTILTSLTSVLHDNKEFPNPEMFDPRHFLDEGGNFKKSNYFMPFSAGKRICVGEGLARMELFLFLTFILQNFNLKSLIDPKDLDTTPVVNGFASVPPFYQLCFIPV

Cytochrome P450 3A4 = Cytochrome P450 3A4 (Homo sapiens, UniProt P08684);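 further: CYP3A4 tested as one member of a cytochrome P450 panel screen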
Cytochrome P450 3A4, sequence (P08684 whole entry): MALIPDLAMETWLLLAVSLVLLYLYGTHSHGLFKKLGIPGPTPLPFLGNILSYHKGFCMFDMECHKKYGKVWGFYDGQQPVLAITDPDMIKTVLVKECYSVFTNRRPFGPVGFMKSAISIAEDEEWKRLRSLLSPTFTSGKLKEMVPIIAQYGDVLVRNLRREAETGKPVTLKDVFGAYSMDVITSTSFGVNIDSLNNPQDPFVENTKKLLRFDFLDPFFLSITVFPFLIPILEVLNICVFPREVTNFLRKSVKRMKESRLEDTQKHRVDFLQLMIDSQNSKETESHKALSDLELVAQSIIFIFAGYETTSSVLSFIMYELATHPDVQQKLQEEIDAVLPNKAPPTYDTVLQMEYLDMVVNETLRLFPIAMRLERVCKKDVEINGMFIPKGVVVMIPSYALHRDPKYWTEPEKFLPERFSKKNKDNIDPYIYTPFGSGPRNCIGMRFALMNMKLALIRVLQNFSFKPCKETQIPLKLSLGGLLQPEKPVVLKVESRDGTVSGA

Cytochrome P450 2D6 = Cytochrome P450 2D6 (Homo sapiens, UniProt P10635);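 further: CYP2D6 member of a cytochrome P450 panel assay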
Cytochrome P450 2D6, sequence (P10635 whole entry): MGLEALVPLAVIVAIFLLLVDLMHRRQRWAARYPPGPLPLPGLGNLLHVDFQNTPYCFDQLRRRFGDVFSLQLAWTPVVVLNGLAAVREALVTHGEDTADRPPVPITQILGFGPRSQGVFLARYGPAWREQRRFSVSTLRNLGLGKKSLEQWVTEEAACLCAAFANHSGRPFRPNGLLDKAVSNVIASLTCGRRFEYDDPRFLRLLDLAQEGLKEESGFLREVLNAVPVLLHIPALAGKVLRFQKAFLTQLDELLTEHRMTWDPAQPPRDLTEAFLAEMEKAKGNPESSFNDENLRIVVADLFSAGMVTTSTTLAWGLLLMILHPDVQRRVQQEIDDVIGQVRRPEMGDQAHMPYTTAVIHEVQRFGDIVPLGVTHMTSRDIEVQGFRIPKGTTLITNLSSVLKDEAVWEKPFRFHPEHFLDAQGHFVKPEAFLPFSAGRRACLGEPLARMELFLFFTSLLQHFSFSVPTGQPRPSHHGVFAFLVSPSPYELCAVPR

IC50 (Coagulation factor XII) | SMILES | AC50 [1] | AC50 [2] | AC50 [3] | AC50 [4] | further results
– | COc1ccc(N(C(=O)CCl)C(C(=O)NC2CCCCC2)c2cccs2)cc1Cl (stereo unspecified) | 270 nM (active) | 113 nM (active) | 120 nM (active) | 455 nM (active) | –
> 50000 nM (inactive) | CC(=O)Nc1nonc1NC(=O)CSc1ccccn1 | – | – | – | – | –
– | Cc1ccc(/N=c2\ssnc2Cl)nc1 | – | – | – | – | IC50 [5]: > 100000 nM (inactive); IC50 (Phosphomannomutase 2): > 100000 nM (inactive)
– | COc1ccc(N(C(=O)CCl)C(C(=O)NCn2nnc3ccccc32)c2cccs2)cc1Cl (stereo unspecified) | 242 nM (active) | 102 nM (active) | 97 nM (active) | 432 nM (active) | –
> 50000 nM (inactive) | CCOc1cc(/C=N/n2cnnc2)cc(Br)c1O | – | – | – | – | –
– | O=C([O-])Cc1ccccc1Nc1c(Cl)cccc1Cl.[Na+] [DICLOFENAC SODIUM] | – | – | – | – | AC50 (Cytochrome P450 1A2): inactive; AC50 (Cytochrome P450 2C19): inactive; AC50 (Cytochrome P450 3A4): inconclusive; AC50 (Cytochrome P450 2D6): inactive
